According to patent US20060264419A1 (priority 2003, published 2006):
Like-named read-outs stand apart in the source and are kept apart here.

Assays:
[1] = target: 5-HT2A receptors (Rattus norvegicus, UniProt P14842); test: in-vitro affinity to 5-HT2A receptors, displacement of [3H]ketanserine (Example A1); assay type: binding
From the text: The 5-HT2A receptors are exposed both to [^3H]ketanserine (a substance which is known for its affinity to the receptor) and also to the test compound. The decrease in the affinity of [^3H]ketanserine to the receptor is an indication of the affinity of the test substance to the 5-HT2A receptor.

[2] = target: T1, 5 HT2C receptor (Homo sapiens, UniProt P28335); test: affinity to the 5 HT2C receptor; assay type: binding
T1 sequence (P28335 33-458): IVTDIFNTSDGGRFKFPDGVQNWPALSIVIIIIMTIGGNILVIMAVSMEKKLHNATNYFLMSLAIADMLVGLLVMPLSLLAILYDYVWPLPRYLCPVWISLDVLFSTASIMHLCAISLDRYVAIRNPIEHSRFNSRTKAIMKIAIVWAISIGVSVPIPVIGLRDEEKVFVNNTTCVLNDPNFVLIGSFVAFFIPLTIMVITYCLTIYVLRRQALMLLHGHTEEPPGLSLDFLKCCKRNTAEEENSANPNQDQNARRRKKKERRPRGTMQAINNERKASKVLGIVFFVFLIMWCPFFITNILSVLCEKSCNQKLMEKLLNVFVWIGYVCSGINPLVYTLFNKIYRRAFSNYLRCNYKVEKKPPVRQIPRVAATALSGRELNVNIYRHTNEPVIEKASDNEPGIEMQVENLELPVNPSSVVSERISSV

[3] = target not given, description names affinity to 5-HT2A receptors, read-out: IC50

Chain of 5-HT2A receptors (P14842 whole entry): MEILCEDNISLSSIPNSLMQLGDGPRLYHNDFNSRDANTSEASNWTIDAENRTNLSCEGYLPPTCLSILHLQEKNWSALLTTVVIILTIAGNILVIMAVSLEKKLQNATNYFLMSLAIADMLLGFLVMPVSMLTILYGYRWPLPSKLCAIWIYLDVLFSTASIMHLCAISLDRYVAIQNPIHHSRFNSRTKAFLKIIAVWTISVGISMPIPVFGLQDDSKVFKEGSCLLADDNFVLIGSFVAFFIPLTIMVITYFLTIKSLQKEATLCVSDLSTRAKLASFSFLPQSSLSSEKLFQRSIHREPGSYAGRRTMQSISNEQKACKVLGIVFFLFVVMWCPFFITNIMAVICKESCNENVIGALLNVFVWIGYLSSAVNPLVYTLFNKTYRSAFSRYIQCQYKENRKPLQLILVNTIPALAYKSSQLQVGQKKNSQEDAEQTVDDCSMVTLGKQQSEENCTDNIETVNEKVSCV

| Compound | IC50 ([1]; read-out: HT2A IC50) [nM] | IC50 [2] [nM] | IC50 [1, 3] [nM] |
| --- | --- | --- | --- |
| Fc1ccccc1-c1c(CCN2CCOCC2)cnn1-c1ccc(-c2ccccc2)cc1 [Example 898, 4-{2-[1-Biphenyl-4-yl-5-(2-fluoro-phenyl)-1H-pyrazol-4-yl]ethyl}morpholine] | 12 | 1000 |  |
| CCN1CCCC1CNCc1cnn(-c2ccc(-c3ccccc3)cc2)c1-c1ccccc1F (stereo not drawn) [Example 947, [1-Biphenyl-4-yl-5-(2-fluorophenyl)-1H-pyrazol-4-ylmethyl]-(1-ethyl-pyrrolidin-2-yl-methyl)amine] | 46.9 | 1000 |  |
| c1ccc(-c2ccc(-n3ncc(CNCc4ccncc4)c3-c3ccccc3)cc2)cc1 [Example 932, (1-Biphenyl-4-yl-5-phenyl-1H-pyrazol-4-yl-methyl)pyridin-4-ylmethylamine] | 31 | 1000 |  |
| Fc1ccccc1-c1c(CN2CCc3ccccc3C2)cnn1-c1ccc(-c2ccccc2)cc1 [Example 964, 2-[1-Biphenyl-4-yl-5-(2-fluoro-phenyl)-1H-pyrazol-4-ylmethyl]-1,2,3,4-tetrahydro-iso-quinoline] | 70 | 1000 |  |
| CN1CCN(Cc2cnn(-c3ccc(-c4ccccc4F)cc3)c2-c2ccccc2F)CC1 [Example 976, 1-[1-(2′-Fluorobiphenyl-4-yl)-5-(2-fluoro-phenyl)-1H-pyrazol-4-ylmethyl]-4-methyl-piperazine] | 93 | 371 |  |
| CN1CCN(Cc2cnn(-c3ccc(-c4ccc(F)c(F)c4)cc3)c2-c2ccccc2F)CC1 [Example 960, 1-[1-(3′,4′-Difluorobiphenyl-4-yl)-5-(2-fluoro-phenyl)-1H-pyrazol-4-ylmethyl]-4-methyl-piperazine] | 60 | 340 |  |
| CN(C)CCN(C)Cc1cnn(-c2ccc(-c3ccc(F)cc3)cc2)c1-c1ccccc1Cl [Example 946, N-[5-(2-chlorophenyl)-1-(4′-fluoro-biphenyl-4-yl)-1H-pyrazol-4-ylmethyl]-N,N′,N′-trimethyl-ethane-1,2-diamine] | 44 | 490 |  |
| NCc1cnn(-c2ccc(-c3ccccc3)cc2)c1-c1ccccc1 [Example 915, C-(1-Biphenyl-4-yl-5-phenyl-1H-pyrazol-4-yl)-methylamine] | 21 | 920 |  |
| OC1CCN(CCc2cnn(-c3ccc(-c4ccc(F)cc4)cc3)c2-c2ccccc2F)C1 (stereo not drawn) [Example 913, 1-{2-[1-(4′-Fluorobiphenyl-4-yl)-5-(2-fluoro-phenyl)-1H-pyrazol-4-yl]ethyl}pyrrolidin-3-ol] | 20 | 620 |  |
| CC(C)N1CCN(Cc2cnn(-c3ccc(-c4ccc(F)cc4)cc3)c2-c2ccccc2Cl)CC1 [Example 997, 1-[5-(2-Chlorophenyl)-1-(4′-fluoro-biphenyl-4-yl)-1H-pyrazol-4-ylmethyl]-4-isopropylpiperazine] | 160 | 1000 |  |
| CN1CCN(Cc2cnn(-c3ccc(-c4cccc(F)c4F)cc3)c2-c2ccccc2F)CC1 [Example 967, 1-[1-(2′,3′-Difluorobiphenyl-4-yl)-5-(2-fluoro-phenyl)-1H-pyrazol-4-ylmethyl]-4-methyl-piperazine] | 73 |  |  |
| CCOC(=O)CNC(=O)CNCc1cnn(-c2ccc(-c3ccccc3)cc2)c1-c1ccccc1F [(153), Ethyl (2-{[1-Biphenyl-4-yl-5-(2-fluorophenyl)-1H-pyrazol-4-ylmethyl]amino}ethanoylamino)acetate] |  |  | 1100 |
| CC(C)(C)OC(=O)N1CCC(NCc2cnn(-c3ccc(-c4ccccc4)cc3)c2-c2ccccc2F)C1 (stereo not drawn) [Example 1056, tert-Butyl 3-{[1-biphenyl-4-yl-5-(2-fluoro-phenyl)-1H-pyrazol-4-ylmethyl]amino}pyrrolidine-1-carboxylate] | 460 |  |  |
| Fc1ccc(F)c(-c2ccc(-n3ncc(CNCC4CCCO4)c3-c3ccccc3F)cc2)c1 (stereo not drawn) [Example 1044, [1-(2′,5′-Difluorobiphenyl-4-yl)-5-(2-fluoro-phenyl)-1H-pyrazol-4-ylmethyl](tetrahydro-furan-2-ylmethyl)amine] | 370 |  |  |
| Fc1ccccc1-c1c(CN2CCC2)cnn1-c1ccc(-c2ccccc2)cc1 [(160), 4-Azetidin-1-ylmethyl-1-biphenyl-4-yl-5-(2-fluorophenyl)-1H-pyrazole] |  |  | 47 |
| OCc1cnn(-c2ccc(-c3ccccc3)cc2)c1-c1ccccc1F [(21), [1-Biphenyl-4-yl-5-(2-fluorophenyl)-1H-pyrazol-4-yl]-methanol] |  |  | 1200 |
| Fc1ccccc1-c1c(CN2CCN(Cc3ccccc3)CC2)cnn1-c1ccc(-c2ccccc2)cc1 [(24), 1-Benzyl-4-[1-biphenyl-4-yl-5-(2-fluorophenyl)-1H-pyrazol-4-ylmethyl]piperazine] |  |  | 170 |
| CNC(=O)CNCc1cnn(-c2ccc(-c3ccccc3)cc2)c1-c1ccccc1F [(130), 2-{[1-Biphenyl-4-yl-5-(2-fluorophenyl)-1H-pyrazol-4-ylmethyl]-amino}-N-methylacetamide] |  |  | 600 |

| Compound | IC50 ([1]; read-out: HT2A IC50) [nM] | IC50 [2] [nM] | IC50 [1, 3] [nM] |
| --- | --- | --- | --- |
| COC(=O)CCNCc1cnn(-c2ccc(-c3ccccc3)cc2)c1-c1ccccc1F [(112), Methyl 3-{[1-biphenyl-4-yl-5-(2-fluorophenyl)-1H-pyrazol-4-ylmethyl]amino}propionate] |  |  | 210 |
| CC1CN(Cc2cnn(-c3ccc(-c4ccccc4)cc3)c2-c2ccccc2F)CC(C)N1 (stereo not drawn) [(95), 1-[1-Biphenyl-4-yl-5-(2-fluorophenyl)-1H-pyrazol-4-ylmethyl]-3,5-dimethylpiperazine] |  |  | 100 |
| Fc1ccccc1-c1c(CNc2cnccn2)cnn1-c1ccc(-c2ccccc2)cc1 [(158), [1-Biphenyl-4-yl-5-(2-fluorophenyl)-1H-pyrazol-4-ylmethyl]-pyrazin-2-ylamine] |  |  | 2300 |
| CN1CCC(N(C)Cc2cnn(-c3ccc(-c4ccccc4)cc3)c2-c2ccccc2F)CC1 [(39), [1-Biphenyl-4-yl-5-(2-fluorophenyl)-1H-pyrazol-4-ylmethyl]-methyl-(1-methylpiperidin-4-yl)amine] |  |  | 160 |
| Fc1ccc(F)c(-c2ccc(-n3ncc(CNc4cc[nH]n4)c3-c3ccccc3F)cc2)c1 [Example 1005, [1-(2′,5′-Difluorobiphenyl-4-yl)-5-(2-fluoro-phenyl)-1H-pyrazol-4-ylmethyl]-(1H-pyrazol-3-yl)amine] | 180 |  |  |
| Fc1ccccc1-c1c(CN2CCC(Cc3cccnc3)CC2)cnn1-c1ccc(-c2ccccc2)cc1 [Example 962, 3-{1-[1-Biphenyl-4-yl-5-(2-fluoro-phenyl)-1H-pyrazol-4-ylmethyl}piperidin-4-ylmethyl]pyridine] | 66 |  |  |
| COCCN(C)Cc1cnn(-c2ccc(-c3ccccc3)nc2)c1-c1ccccc1F [(134), [5-(2-Fluorophenyl)-1-(6-phenylpyridin-3-yl)-1H-pyrazol-4-ylmethyl]-(2-methoxyethyl)methylamine] |  |  | 300 |
| CN(C)CCN(C)Cc1cnn(-c2ccc(-c3ccc(F)cc3)nc2)c1-c1ccccc1F [(141), N-{5-(2-fluorophenyl)-1-[6-(4-fluorophenyl)pyridin-3-yl]-1H-pyrazol-4-ylmethyl}-N,N′,N′-trimethylethane-1,2-diamine] |  |  | 140 |
| CN(CCO)Cc1cnn(-c2ccc(-c3ccccc3)cc2)c1-c1ccccc1F [(92), 2-{[1-Biphenyl-4-yl-5-(2-fluorophenyl)-1H-pyrazol-4-ylmethyl]-methylamino}ethanol] |  |  | 16 |
| NCCNCc1cnn(-c2ccc(-c3ccccc3)cc2)c1-c1ccccc1F [(76), N^1-[1-Biphenyl-4-yl-5-(2-fluorophenyl)-1H-pyrazol-4-ylmethyl]-ethane-1,2-diamine] |  |  | 6.5 |
| OCC(Cc1cnc[nH]1)NCc1cnn(-c2ccc(-c3ccccc3)cc2)c1-c1ccccc1F (stereo not drawn) [(137), 2-{[1-Biphenyl-4-yl-5-(2-fluorophenyl)-1H-pyrazol-4-ylmethyl]-amino}-3-(3H-imidazol-4-yl)propan-1-ol] |  |  | 370 |
| COC(=O)CCNCc1cnn(-c2ccc(-c3ccccc3)cc2)c1-c1ccccc1F [Example 1014, Methyl 3-{[1-biphenyl-4-yl-5-(2-fluoro-phenyl)-1H-pyrazol-4-ylmethyl]amino}propionate] | 210 |  |  |
| CN1CCN(Cc2cnn(-c3ccc(-c4cc(F)ccc4F)cc3)c2-c2ccco2)CC1 [(69), 1-[1-(2′,5′-Difluorobiphenyl-4-yl)-5-furan-2-yl-1H-pyrazol-4-ylmethyl]-4-methylpiperazine] |  |  | 36 |
| OCCc1cnn(-c2ccc(-c3ccccc3)cc2)c1-c1ccccc1F [(173), 2-[1-Biphenyl-4-yl-5-(2-fluorophenyl)-1H-pyrazol-4-yl]-ethanol] |  |  | 470 |
| CN1CCN(NCc2cnn(-c3ccc(-c4ccc(F)cc4)cc3)c2-c2ccccc2)CC1 [Example 974, [1-(4′-Fluorobiphenyl-4-yl)-5-phenyl-1H-pyrazol-4-ylmethyl]-(4-methyl-piperazin-1-yl)amine] | 87 |  |  |
| Fc1ccccc1-c1c(CN2CCc3ccccc3C2)cnn1-c1ccc(-c2ccccc2)cc1 [(36), 2-[1-Biphenyl-4-yl-5-(2-fluorophenyl)-1H-pyrazol-4-ylmethyl]-1,2,3,4-tetrahydroisoquinoline] |  |  | 70 |
| CCOC(=O)CNCc1cnn(-c2ccc(-c3ccccc3F)nc2)c1-c1ccccc1F [(148), Ethyl ({5-(2-fluorophenyl)-1-[6-(2-fluorophenyl)pyridin-3-yl]-1H-pyrazol-4-ylmethyl}amino)acetate] |  |  | 1600 |
